Measured values as given in US12612427B2, “Aryl glucoside derivative, preparation method therefor and application thereof” (Shanghai Zheye Biotechnology Co. Ltd., priority 2020, dated 2026).
Several values for one entry are separate records, joined by “and”; a condition that tells them apart may be missing. Identical values can stand only once.

Columns and labels:
[1] = Lipid solubility and water solubility; assay type: physicochemical; conditions: compared with the compound of Example 5
human SGLT1 = biological target: T1, human SGLT1 (Homo sapiens, UniProt P13866); assay: hSGLT1 inhibitor activity experiment 2: 2-NBDG uptake by HEK293 cells stably expressing human SGLT1; assay type: cell-based; conditions: for IC50: 2-NBDG uptake, HEK293 stably expressing human SGLT1, read-out: SGLT1 Inhibitory Activity
T1 construct: expressed in transfected cells
T1 sequence (P13866 1-664): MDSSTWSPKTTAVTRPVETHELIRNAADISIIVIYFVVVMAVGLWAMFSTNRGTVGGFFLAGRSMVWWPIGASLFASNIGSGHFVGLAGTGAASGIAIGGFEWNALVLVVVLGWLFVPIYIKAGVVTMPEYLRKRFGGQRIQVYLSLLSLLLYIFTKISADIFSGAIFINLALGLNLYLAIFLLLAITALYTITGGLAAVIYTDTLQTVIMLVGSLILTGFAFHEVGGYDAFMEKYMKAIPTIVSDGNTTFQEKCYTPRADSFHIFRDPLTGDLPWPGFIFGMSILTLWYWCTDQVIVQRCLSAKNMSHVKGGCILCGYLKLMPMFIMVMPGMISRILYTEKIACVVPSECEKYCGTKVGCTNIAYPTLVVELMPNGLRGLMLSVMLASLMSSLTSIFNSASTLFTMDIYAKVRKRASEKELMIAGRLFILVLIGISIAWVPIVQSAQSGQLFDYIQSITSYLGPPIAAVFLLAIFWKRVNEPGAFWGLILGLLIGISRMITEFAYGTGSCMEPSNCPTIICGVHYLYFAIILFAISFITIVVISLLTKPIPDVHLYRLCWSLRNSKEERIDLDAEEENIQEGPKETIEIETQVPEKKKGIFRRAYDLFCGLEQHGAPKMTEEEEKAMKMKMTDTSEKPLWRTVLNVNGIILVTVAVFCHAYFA
Method: Inhibitory activity testing was performed with reference to a similar method described in document [Acta Pharmaceutica Sinica 2017, 52 (6): 897-903; Nature Protocols (2007), 2(3), 753-762; Journal of Biochemical and Biophysical Methods (2005), 64(3), 207-215; Diabetes Technology & Therapeutics (2011), 13(7), 743-775].
In this experiment, the in vitro activity assay was evaluated using the uptake of 2-NBDG (2-Deoxy-2-[(7-nitro-2,1,3-benzoxadiazol-4-yl)amino]-D-glucose, CAS NO: 186689-07-6) by human embryonic kidney epithelial cells (HEK293, stably expressing human SGLT1), and the SGLT1 inhibitory activity of the target compound was determined by measuring its half-maximal inhibitory concentration (IC50).
HEK293 cells that can stably express human SGLT1 gene were inoculated into a 96-well clear-bottom black plate containing DMEM medium. The cells were incubated at 37° C., 5% CO2 in a cell incubator. The medium in the 96-well plate was aspirated, and the plate was treated with low-glucose serum-free DMEM medium, and washed once with non-specific uptake buffer and once with Na^+-dependent uptake buffer. Uptake buffer containing test compound was added to each well of cells, followed by uptake buffer containing 2-NBDG for glucose uptake, and the cell plate was incubated at 37° C., 5% CO2. The compounds were gradiently diluted. The uptake reaction was stopped by removing the culture medium, and after washing the cells with ice-cold uptake buffer, the washing solution was removed. The cells were lysed by adding NaOH, and the content of 2-NBDG in the cells was detected by a fluorescence microplate reader. The protein concentration of the lysate was measured by BCA method, the uptake of 2-NBDG was quantified by fluorescence intensity/protein content, and the obtained data were analyzed using GraphPad Prism to determine the median inhibitory concentration (IC50) of the compound to be tested.

SD rats = assay: Oral glucose tolerance test (OGTT) after continuous administration in rats for 14 days; assay type: in vivo, rat; conditions: for blood sugar level of rats (OGTT): 0.009 mg/kg oral gavage, 14 days, OGTT on day 15; for loose stools in the experimental animals: rats, within 48 hours before and after the experiment
Method: • Experimental animals: SPF male SD rats; • Compound preparation: an appropriate amount of the compounds of Example 1, Example 2, Example 9, Example 10, and Example 17 were weighed, and uniformly suspended with an appropriate amount of 0.5% CMC-Na solution; • Preparation of glucose solution: an appropriate amount of glucose powder was weighed and dissolved with an appropriate amount of pure water; • Dosage and method of administration: 0.009 mg/kg, oral gavage.
Experimental process: the animals were fed a normal diet with consecutive administration for 14 days, and the glucose tolerance test was performed on day 15, blood glucose was detected before administration (−30 min), before giving glucose (0 min), and 10, 30, 60, and 120 min after giving glucose solution, and the defecation of animals was observed.

[2] = Pharmacokinetic study in rats; assay type: in vivo, rat; conditions: 10 mg/kg, oral gavage, 0-24 hours
Method: 5. Pharmacokinetic Study in Rats • Experimental animals: SPF male SD rats; • Dosage and method of administration: 10 mg/kg, oral gavage. • Research compound: Dapagliflozin, the compound of Example 9, the compound of Example 10, the compound of Example 17, and the comparative compound 6;
Test method: Before administration (0), and 1, 4, 8, and 24 hours after administration, 0.2 ml of blood was collected from orbital venous plexus, anticoagulated with heparin, plasma was collected, and the blood drug concentration was determined.

[3] = tested on: type 2 diabetes mouse model; assay: In vivo hypoglycemic efficacy experiment combined with sitagliptin; conditions: 0.01, 0.05, 0.1 mg/kg combined with 20 mg/kg of sitagliptin, STZ and high-fat high-sugar diet mice
Method: Model establishment: SPF grade Balb/C male mice were used in this experiment, and the establishment of the type 2 diabetes mouse model was induced by intraperitoneal injection of streptozotocin (STZ) supplemented by high-fat and high-sugar diet. • Group: 10 per group
Administration: normal group, model group, low-dose combined administration group (0.01 mg/kg of the compound of Example 10+20 mg/kg of sitagliptin), medium-dose combined administration group (0.05 mg/kg of the compound of Example 10+20 mg/kg of sitagliptin), high-dose combined administration group (0.1 mg/kg of the compound of Example 10+20 mg/kg of sitagliptin), sitagliptin group (20 mg/kg). The normal group and the model group were given the solvent by gavage.

[4] = tested on: microorganisms in rat feces; assay: Intestinal microbial metabolic stability in rat feces suspension; assay type: in vitro ADME; conditions: for Percentage of remaining compound: rat feces suspension, 37° C.
Method: Methods: The collected rat feces were processed, and the feces suspension was obtained for the determination of metabolic stability. The mixed reaction system consisting of the rat feces suspension and the compound of […] was incubated at 37° C. for 3 h, 6 h, 12 h and 24 h. The compound of Example 10 in the incubation system was analyzed to determine the total amount of remaining compound. Wherein, “+” represents the remaining percentage being: <50%; “++” represents the remaining percentage being: 50% to 70%; “+++” represents the remaining percentage being: 70% to 90%; “++++” means the remaining percentage being: >90%.

SD mice = assay: Oral glucose tolerance test (OGTT) after consecutive administration in mice; assay type: in vivo, mouse; conditions: for Statistics of loose stools in animals / loose stools (in words): mice
Method: • Experimental animals: SPF male SD mice; • Compound preparation: an appropriate amount of the compound of Example 10 was weighed, and uniformly suspended with an appropriate amount of 0.5% CMC-Na solution; • Preparation of glucose solution: an appropriate amount of glucose powder was weighed and dissolved with an appropriate amount of pure water; • Administration and dosage: oral gavage; blank vehicle group, high-dose group (1.5 mg/kg), low-dose group (0.1 mg/kg). Experimental Process: • (1) The mice were fed a high-sugar diet for 6 days, and then grouped (10 mice in each group) to enter the administration stage; • (2) Example compound 10 was administered at 5:00 pm every day from day 1 to day 5, once a day, and then the animals were fed a high-sugar free diet, and the defecation of the animals was observed. • (3) On day 6, oral glucose tolerance test was performed, and glucose solution (2 g/kg) was orally administered. Blood glucose was detected before (0 min) and 10, 30, and 60 min after giving glucose solution, respectively. Experimental Results: • (1) From day 1 to day 5, the observation of animal defecation after continuous administration is summarized as follows: […]

| SMILES | activity of inhibiting SGLT1 (in words) (human SGLT1) | IC50 (human SGLT1) [pM] | blood sugar level of rats (OGTT) (SD rats) | loose stools in the experimental animals (SD rats) | drug concentration in plasma [2] | also measured |
| --- | --- | --- | --- | --- | --- | --- |
| CS[C@H]1O[C@@H](c2ccc(C)c(Cc3ccc(CCCC(=O)NC(C)(C)C(=O)NCCN(C)CC(=O)N(C)Cc4cn(C5CC5)nn4)cc3)c2)[C@H](O)[C@@H](O)[C@@H]1O |  |  |  |  |  | lipid solubility [1]: better; water solubility [1]: better |
| CS[C@H]1O[C@@H](c2ccc(C)c(Cc3ccc(CCCC(=O)NC(C)(C)C(=O)NCCN(C)CC(=O)N4CCCC4)cc3)c2)[C@H](O)[C@@H](O)[C@@H]1O [Example 1] | significant activity of inhibiting SGLT1 | 780 | significantly reduce the blood sugar level | no loose stools were observed |  |  |
| CS[C@H]1O[C@@H](c2ccc(C)c(Cc3ccc(CCCC(=O)NC(C)(C)C(=O)NCCN(C)CC(=O)N(C)C)cc3)c2)[C@H](O)[C@@H](O)[C@@H]1O [Example 2] | significant activity of inhibiting SGLT1 | 1120 | significantly reduce the blood sugar level | no loose stools were observed |  |  |
| CS[C@H]1O[C@@H](c2ccc(C)c(Cc3ccc(CCCC(=O)NC(C)(C)C(=O)NCCN(C)CC(=O)N4CCN(C)CC4)cc3)c2)[C@H](O)[C@@H](O)[C@@H]1O [Example 3] | significant activity of inhibiting SGLT1 | 930 |  |  |  |  |
| CS[C@H]1O[C@@H](c2ccc(C)c(Cc3ccc(CCCC(=O)NC(C)(C)C(=O)N4CCN(CC(=O)N5CCCC5)CC4)cc3)c2)[C@H](O)[C@@H](O)[C@@H]1O [Example 4] | significant activity of inhibiting SGLT1 | 870 |  |  |  |  |
| C#CCN(CCNC(=O)C(C)(C)NC(=O)CCCc1ccc(Cc2cc([C@@H]3O[C@H](SC)[C@@H](O)[C@H](O)[C@H]3O)ccc2C)cc1)CC(=O)N1CCCC1 [Example 9] | significant activity of inhibiting SGLT1 | 530 | significantly reduce the blood sugar level | no loose stools were observed | did not reach the detection limit |  |
| C#CCN(C)C(=O)CN(C)CCNC(=O)C(C)(C)NC(=O)CCCc1ccc(Cc2cc([C@@H]3O[C@H](SC)[C@@H](O)[C@H](O)[C@H]3O)ccc2C)cc1 [Example 10] | significant activity of inhibiting SGLT1 | 370 | significantly reduce the blood sugar level | no loose stools were observed | did not reach the detection limit | blood glucose level of diabetic model animals [3]: significantly reduce the blood glucose level; remaining compound ([4]; incubated with microorganisms in rat feces for about 24 hours): > 70%; Percentage of remaining compound ([4]; incubation 3 h): ++++ (“++++” means the remaining percentage being: >90%); Percentage of remaining compound ([4]; incubation 6 h): +++ (“+++” represents the remaining percentage being: 70% to 90%); Percentage of remaining compound ([4]; incubation 12 h): +++ (“+++” represents the remaining percentage being: 70% to 90%); Percentage of remaining compound ([4]; incubation 24 h): +++ (“+++” represents the remaining percentage being: 70% to 90%); blood glucose level of mice (OGTT) (SD mice; day 6, high (1.5 mg/kg) and low (0.1 mg/kg) dose groups, glucose 2 g/kg): significantly reduce the blood glucose level; Statistics of loose stools in animals (SD mice; high-dose group (1.5 mg/kg), Day 1): only one animal had loose stools and 1/10; Statistics of loose stools in animals (SD mice; high-dose group (1.5 mg/kg), Day 2): 0/10; Statistics of loose stools in animals (SD mice; high-dose group (1.5 mg/kg), Day 3): 0/10; Statistics of loose stools in animals (SD mice; high-dose group (1.5 mg/kg), Day 4): 0/10; Statistics of loose stools in animals (SD mice; high-dose group (1.5 mg/kg), Day 5): 0/10; loose stools (in words) (SD mice; high-dose group (1.5 mg/kg), day 2 to day 5): did not have loose stools; Statistics of loose stools in animals (SD mice; low-dose group (0.1 mg/kg), Day 1): 0/10; Statistics of loose stools in animals (SD mice; low-dose group (0.1 mg/kg), Day 2): 0/10; Statistics of loose stools in animals (SD mice; low-dose group (0.1 mg/kg), Day 3): 0/10; Statistics of loose stools in animals (SD mice; low-dose group (0.1 mg/kg), Day 4): 0/10; Statistics of loose stools in animals (SD mice; low-dose group (0.1 mg/kg), Day 5): 0/10; loose stools (in words) (SD mice; low-dose group (0.1 mg/kg), continuous administration for 5 days): did not have loose stools |
| C#CCN(C)C(=O)CN1CCN(C(=O)C(C)(C)NC(=O)CCCc2ccc(Cc3cc([C@@H]4O[C@H](SC)[C@@H](O)[C@H](O)[C@H]4O)ccc3C)cc2)CC1 [Example 17] | significant activity of inhibiting SGLT1 | 490 | significantly reduce the blood sugar level | no loose stools were observed | did not reach the detection limit |  |
